Assay [1] can be described thus: Antioxidant activity assessed as inhibition of ABTS free radicals at 0.01 mM after 30 mins by UV-visible spectrophotometer analysis relative to control. The class given is functional.
Assay [2] has as its system Radical scavenging activity. Nature of the assay: Antioxidant activity assessed as inhibition of DPPH free radicals after 30 mins by UV-visible spectrophotometer analysis relative to control. The class given is functional.
Assay [3] is described as follows: Antioxidant activity assessed as inhibition of ABTS free radicals at 1 mM after 30 mins by UV-visible spectrophotometer analysis relative to control. The class given is functional.
Assay [4] concerns the target Nitric oxide synthase 1 (Rattus norvegicus, UniProt P29476). The assay can be described thus: Inhibition of nNOS in Sprague-Dawley rat brain homogenates assessed as conversion of oxyhemoglobin to methemoglobin measured for 10 mins by UV-visible spectrophotometer analysis.
The subject of assay [5] is Radical scavenging activity. Nature of the assay: Antioxidant activity assessed as inhibition of DPPH free radicals at 1 mM after 30 mins by UV-visible spectrophotometer analysis relative to control. It is filed as functional.
Assay [6] can be described thus: Antioxidant activity assessed as inhibition of ABTS free radicals at 0.1 mM after 30 mins by UV-visible spectrophotometer analysis relative to control. It is filed as functional.
Assay [7] can be described thus: Antagonist activity at VGCC in Sprague-Dawley rat brain synaptoneurosomes assessed as inhibition of Kcl-induced calcium flux at 100 uM after 5 mins using FURA-2AM by fluorescent spectrometer analysis relative to control. The class given is functional.
Assay [8] can be described thus: Antioxidant activity assessed as inhibition of ABTS free radicals after 30 mins by UV-visible spectrophotometer analysis relative to control. The class given is functional.
The nature of assay [9]: Antagonist activity at NMDAR in Sprague-Dawley rat brain synaptoneurosomes assessed as inhibition of NMDA/glycine-induced calcium flux at 100 uM after 5 mins using FURA-2AM by fluorescent spectrometer analysis relative to control. It is filed as functional.
Assay [10] has as its system Radical scavenging activity. Nature of the assay: Antioxidant activity assessed as inhibition of DPPH free radicals at 0.01 mM after 30 mins by UV-visible spectrophotometer analysis relative to control. The class given is functional.
Assay [11] relates to Radical scavenging activity. The assay can be described thus: Antioxidant activity assessed as inhibition of DPPH free radicals at 0.1 mM after 30 mins by UV-visible spectrophotometer analysis relative to control. It is filed as functional.

Chain of Nitric oxide synthase 1 (P29476 whole entry): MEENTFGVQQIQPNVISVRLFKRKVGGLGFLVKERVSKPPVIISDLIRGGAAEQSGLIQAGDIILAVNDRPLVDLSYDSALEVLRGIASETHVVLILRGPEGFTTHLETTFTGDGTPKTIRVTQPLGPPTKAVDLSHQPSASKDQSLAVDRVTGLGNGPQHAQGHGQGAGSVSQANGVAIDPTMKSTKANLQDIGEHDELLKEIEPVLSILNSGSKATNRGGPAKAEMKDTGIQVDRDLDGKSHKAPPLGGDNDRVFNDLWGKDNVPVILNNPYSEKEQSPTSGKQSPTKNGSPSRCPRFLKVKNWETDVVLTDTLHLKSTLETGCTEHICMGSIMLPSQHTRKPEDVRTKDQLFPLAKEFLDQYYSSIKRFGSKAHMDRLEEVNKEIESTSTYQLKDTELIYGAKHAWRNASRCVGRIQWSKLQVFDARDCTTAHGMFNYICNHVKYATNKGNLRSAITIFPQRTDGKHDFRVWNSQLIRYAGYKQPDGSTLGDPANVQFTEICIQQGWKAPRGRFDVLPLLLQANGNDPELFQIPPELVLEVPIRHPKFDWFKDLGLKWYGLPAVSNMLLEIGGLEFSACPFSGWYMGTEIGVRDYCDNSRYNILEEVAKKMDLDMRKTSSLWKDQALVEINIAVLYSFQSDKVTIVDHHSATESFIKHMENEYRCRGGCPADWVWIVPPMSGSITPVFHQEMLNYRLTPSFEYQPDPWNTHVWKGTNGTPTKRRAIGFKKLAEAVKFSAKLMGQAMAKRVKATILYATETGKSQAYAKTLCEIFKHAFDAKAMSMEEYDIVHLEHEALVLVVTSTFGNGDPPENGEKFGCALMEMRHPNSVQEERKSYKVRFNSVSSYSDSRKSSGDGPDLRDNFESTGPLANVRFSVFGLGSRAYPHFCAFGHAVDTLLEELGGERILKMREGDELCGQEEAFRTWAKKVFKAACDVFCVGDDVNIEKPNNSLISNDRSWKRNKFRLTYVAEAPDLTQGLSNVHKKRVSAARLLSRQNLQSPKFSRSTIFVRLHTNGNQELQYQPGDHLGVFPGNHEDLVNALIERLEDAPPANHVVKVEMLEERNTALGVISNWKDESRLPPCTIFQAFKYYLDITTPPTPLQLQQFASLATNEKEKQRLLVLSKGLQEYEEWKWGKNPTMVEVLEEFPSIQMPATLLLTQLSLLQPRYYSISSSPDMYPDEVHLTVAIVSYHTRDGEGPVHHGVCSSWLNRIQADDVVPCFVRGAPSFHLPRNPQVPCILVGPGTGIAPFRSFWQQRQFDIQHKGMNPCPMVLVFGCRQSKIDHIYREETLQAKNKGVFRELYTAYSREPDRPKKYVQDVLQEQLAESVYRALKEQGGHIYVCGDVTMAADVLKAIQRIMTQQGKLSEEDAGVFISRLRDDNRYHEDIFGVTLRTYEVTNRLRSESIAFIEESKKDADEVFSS

Consider `NC12CC3CC(CC(C3)C1)C2` [AMANTADINE], for which the inhibition in [1] was 0.49%; in assay [2] it was “Dose-dependent effect”; in assay [3], 1.62%; in assay [5] it was 2.32%; in [6], 1.34%; in assay [8], “Dose-dependent effect”. For the same compound, the inhibition was found to be 0.55% in assay [10] and 2.11% in assay [11]. In addition, the IC50 entry in assay [4] is on record as “Not Active”. Moreover, the “inhibition (INH)” value in assay [7] stood at 86.13%; in assay [9], 83.1%.
On to `N#Cc1c2ccccc2cn1C12CC3CC(CC(C3)C1)C2`, for which the inhibition in assay [1] was 9.98%; in [2], “Dose-dependent effect”; in assay [3] it was 13.5%; in assay [5], 32.7%; in assay [6], 13.2%; in assay [8] it was “Dose-dependent effect”. For the same compound, the inhibition turned out to be 27.4% in assay [10] and 27.8% in [11]. For the same compound, the figures for the “inhibition (INH)” value in [7] and in [9] were 54.24% and 84.01%, respectively.
As to `N=C(N)NN` [PIMAGEDINE], the IC50 in assay [4] (read-out: IC50) stood at 19400 nM.
Consider `O=C(NC12CC3CC(CC(C3)C1)C2)c1n[nH]c2ccccc12`, for which the inhibition was 12.4% in assay [1]; “Dose-dependent effect” in [2]; 39.9% in assay [3]; 32.9% in assay [5]; 21.7% in [6]; “Dose-dependent effect” in assay [8]. For the same compound, the inhibition in [10] stood at 28.7%; in [11], 30.1%. Besides, the “inhibition (INH)” value worked out at 93.43% in assay [7] and 83% in [9].
With `O=C(NC12CC3CC(CC(C3)C1)C2)c1cc2ccccc2oc1=O`, the inhibition in assay [1] was 87.5%; in assay [2] it was “Dose-dependent effect”; in [3] it was 93.3%; in [5], 91.7%; in assay [6], 91.8%; in [8] it was “Dose-dependent effect”. The results for the inhibition in assay [10] and in assay [11] were 31.8% and 69.8%, respectively. The IC50 in [4] (read-out: IC50) was 850 nM. For the same compound, the “inhibition (INH)” value amounted to 75.35% in assay [7] and 79.71% in assay [9].
Consider `Cc1c(C)c2c(c(C)c1O)CCC(C)(C(=O)O)O2` (stereo not given), for which the inhibition is 47.6% in assay [1]; “Dose-dependent effect” in assay [2]; 88.5% in [3]; 95.1% in [5]; 62.8% in assay [6]; “Dose-dependent effect” in [8]. For the same compound, the values for the inhibition in assay [10] and in assay [11] were 45.8% and 74.6%, respectively.
Consider `CNc1ccccc1C(=O)NC12CC3CC(CC(C3)C1)C2`, for which the inhibition is 10.7% in assay [1]; “Dose-dependent effect” in assay [2]; 50.5% in assay [3]; 44% in [5]; 24.3% in assay [6]; “Dose-dependent effect” in [8]. Further, the inhibition in [10] came to 42.7%; in assay [11], 42.8%. In addition, the “inhibition (INH)” value in [7] worked out at 93.2%; in [9] it was 96.66%.
With `c1ccc(CNC23OC4C5C6CC(C7C6C4C72)C53)cc1` (stereo not given), the inhibition was 2.44% in [1]; “Dose-dependent effect” in [2]; 8.88% in [3]; 9.98% in [5]; 7.33% in [6]; “Dose-dependent effect” in [8]. Also, the results for the inhibition in assay [10] and in [11] were 0.2% and 5.99%, respectively. Also, the IC50 entry in assay [4] is reported as “Not Active”. The “inhibition (INH)” value in assay [7] came out at 70.12%; in assay [9], 86.63%.
`CN(C)c1cccc2c(S(=O)(=O)NC34CC5CC(CC(C5)C3)C4)cccc12`: the inhibition was 8.11% in assay [1]; “Dose-dependent effect” in assay [2]; 41.6% in [3]; 40.9% in assay [5]; 22.4% in assay [6]; “Dose-dependent effect” in assay [8]. For the same compound, the inhibition was 38% in assay [10] and 38.1% in assay [11]. Further, the IC50 in assay [4] (read-out: IC50) was found to be 410 nM. Besides, the “inhibition (INH)” value in assay [7] was determined as 44.77%; in assay [9], 78.05%.
`O=[N+]([O-])c1ccc(NC23CC4CC(CC(C4)C2)C3)c([N+](=O)[O-])c1`: the inhibition was 8.21% in [1]; “Dose-dependent effect” in assay [2]; 15.7% in assay [3]; 37% in assay [5]; 9.73% in assay [6]; “Dose-dependent effect” in assay [8]. Also, the values for the inhibition in [10] and in [11] were 32.1% and 36.8%, respectively. Further, the IC50 entry in assay [4] was “Not Active”. In addition, the results for the “inhibition (INH)” value in assay [7] and in assay [9] were 89.14% and 80.75%, respectively.
As to `COCCOC(=O)C1=C(C)NC(C)=C(C(=O)OC(C)C)C1c1cccc([N+](=O)[O-])c1` (stereo not given) [NIMODIPINE], the “inhibition (INH)” value in [7] is reported as 12.29%.

Values taken from ChEMBL document CHEMBL1795278, “Synthesis and evaluation of fluorescent heterocyclic aminoadamantanes as multifunctional neuroprotective agents” (Bioorg Med Chem, 2011).
